# Where no end group is shown, it is not given here. MBP = maltose-binding protein; HA = HA epitope tag
# How the values were obtained:
# [1] = tested on: MBP:FUS (full-length FUS droplets) / Kapβ2; test: Turbidity assay of FUS droplet formation (OD 395 nm); format: biochemical; settings: equimolar poly-dipeptide and Kapβ2 (8 μM)
# [2] = tested on: Kapβ2; test: Pull-down (on-column) binding assay, Kapβ2; settings: purified recombinant proteins, 20 mM HEPES pH 7.4, 150 mM NaCl, equal molar, 20–30 min
# Text: (§1) Unbound proteins were washed three times with the buffer.
# [3] = tested on: BSA; test: Pull-down binding assay, BSA control; settings: GST:PR18 on beads
# Text: as §1
# [4] = tested on: MBP; settings: GST:PR18 on beads
# Description: (§2) Four micrograms of GST proteins were immobilized on 30 μL of beads. […] Unbound proteins were washed three times with the buffer. Bound proteins and unbound proteins were separated by SDS-polyacrylamide gel electrophoresis and stained with Coomassie Brilliant Blue.
# [5] = tested on: EGFP; settings: GST:PR18 on beads
# Description: as §2
# [6] = tested on: Lysozyme; test: Pull-down binding assay, Lysozyme control; settings: GST:PR18 on beads
# Text: as §1
# [7] = tested on: endogenous Kapβ2; test: Immunoprecipitation from HeLa cells; format: binding; settings: expressed in HeLa cells; cytosol extract, Streptavidin Mag Sepharose
# Description: The pcDNA5/FRT/TO-HA:SBP plasmid was generated by inserting the PCR-amplified HA:SBP sequence into the pcDNA5/FRT/TO vector (Thermo Fisher Scientific) between the HindIII and BamHI sites. The HA:SBP:GFP:PR20:HA plasmid was constructed by ligating the GFP:PR20:HA sequence into the pcDNA5/FRT/TO-HA-SBP between the EcoRV and XhoI sites. The HA:SBP:Kapβ2 plasmid was constructed by ligating the Kapβ2 sequence into the pcDNA5/FRT/TO-HA:SBP between the BamHI and NotI sites. HeLa cells were cultured in Dulbecco’s modified Eagle medium/10% fetal bovine serum at 37 °C with 5% CO2. Cells were transfected with plasmids using Lipofectamine 3000 (Thermo Fisher Scientific) according to the manufacturer’s instructions. HeLa cytosol extracts were prepared by Cytoplasmic Extraction buffer (CE; 10 mM HEPES pH 7.9, 60 mM KCl, 1 mM EDTA, 0.075% NP40, 1 mM DTT, and cOmplete™ EDTA-free protease inhibitor [Sigma-Aldrich]) for 10 min on ice and then separated from nuclear by centrifugation at 500 × g for 10 min. The resultant extracts were cleared by centrifugation at 20,400 × g for 10 min. The supernatant containing the HeLa cytosol extracts were mixed with the Streptavidin Mag Sepharose (GE Healthcare) and rotated at 4 °C overnight. The beads were finally washed five times with CE buffer. The anti-Kapβ2 (sc-166127, 1 : 1000) antibody was obtained from Santa Cruz Biotechnology. […]
# [8] = tested on: Importinβ1; test: Pull-down binding assay, GST:Importinβ1; settings: GST:Importinβ1 on beads
# Text: as §1
# [9] = tested on: Kapβ2; test: Isothermal titration calorimetry; format: binding; settings: ITC, Supplementary Table 1 (not shown)
# Description: ITC experiments were performed with a Malvern iTC200 calorimeter (Malvern Instruments). […] ITC experiments were performed at 25 °C with 19 rounds of 2 μL injections. Data were analyzed using Origin software.
# [10] = tested on: Kapβ2; test: Analytical ultracentrifugation; format: binding; settings: 28 µM each, 25 °C, 20 mM HEPES pH 7.4, 150 mM NaCl
# Description: AUC measurements were conducted with ProteomeLab XL-I (Beckman Coulter). […] The solutions were filled in 1.5 mm path-length titanium cells (Nanolytics). The measurements were performed with Rayleigh-interference optics at rotor speed of 125,000 × g (at 70 mm radius). The temperature was set at 25 °C. The weight concentration distribution as a function of sedimentation coefficient c(s20,w) and frictional ratio f/f0 were computed with SEDFIT[49] and Igor Pro software. The sedimentation coefficient was normalized to be the value at 20 °C in pure water s20,w. The molecular weight M was calculated with the corresponding peak value of s20,w and f/f0[49].
# [11] = tested on: Importinα; test: Pull-down binding assay, GST:Importinα; settings: GST:Importinα on beads
# Text: as §1
substance,measurement,setting,value
GA20,Inhibition of the ability of Kapβ2 to melt FUS droplets (turbidity),[1],did not
"GST:PR18: Glutathione S-transferase fusion of PR18 (PRPRPRPRPRPRPRPRPRPRPRPRPRPRPRPRPRPR; also: GST fusion, end not given here)",Binding to Kapβ2 (pull-down),[2],bound Kapβ2
same,Binding to BSA (pull-down),[3],no interaction
same,Binding to MBP (pull-down),[4],no interaction
same,Binding to EGFP (pull-down),[5],no interaction
same,Binding to Lysozyme (pull-down),[6],no interaction
HA:SBP:GFP:PR20:HA: PR20 fusion expressed from plasmid in HeLa cells ({HA-SBP-GFP}-PRPRPRPRPRPRPRPRPRPRPRPRPRPRPRPRPRPRPRPR-{HA}; not fully specified),Co-immunoprecipitation of endogenous Kapβ2,[7],interaction between endogenous Kapβ2 and HA:SBP:GFP:PR20:HA
MBP:PR8: maltose-binding protein fusion of 8 repeats of Pro-Arg ({MBP}-PRPRPRPRPRPRPRPR),Binding to Kapβ2 (pull-down),[2],did not
"MBP:PR18: maltose-binding protein fusion of 18 repeats of Pro-Arg (PRPRPRPRPRPRPRPRPRPRPRPRPRPRPRPRPRPR; also: MBP fusion, end not given here)",Binding to Kapβ2 (pull-down),[2],bound Kapβ2
same,Binding to Importinβ1 (pull-down),[8],interactions
same,Relative binding strength to Kapβ2 vs full-length FUS,[9],bound Kapβ2 more strongly than full-length FUS does
same,Complex formation with Kapβ2 (AUC),[10],complex formation
same,Binding to Importinα (pull-down),[11],interactions
